In US20190298718A1, “DOSING REGIMEN” (Cyclacel Limited, priority 2017, published 2019):
Like-named read-outs stand apart in the source and are kept apart here.

Legend:
colon cancer = settings: model of colon cancer; cited from earlier work
[1] = phase I, patients with a variety of cancers; cited from earlier work
AML cell lines = experiment: Combination of CNDAC with hypomethylating agents in AML cell lines; assay type: cell-based; settings: more apparent if cells are treated with hypomethylating agents first
Description: Previous studies by the applicant have shown that in AML cell lines, the active metabolite of sapacitabine, CNDAC, is synergistic with hypomethylating agents and the synergy is more apparent if cells are treated with hypomethylating agents first. The present invention relates to the identification of new and previously undefined subgroups of AML patients for which treatment with an alternating regimen of sapacitabine and decitabine is particularly effective.

[2] = test system: acute myeloid leukemia (AML); assay type: in vivo, human
Description: WBC count can be determined, by any suitable institutional standard protocol. By way of example, suitable methods are described in Blumenreich [Reference 12] or Shafer [Reference 13], the contents of which are incorporated by reference.
SWOG classification was determined according to the criteria set out in Table 6 (Slovak et al, Reference 1; the contents of which are incorporated by reference). Cytogenetic testing can be carried out on peripheral blood, for example, in accordance with the standard methodology set forth in Slovak et al [Reference 1] or on bone marrow. Karyotyping or routine cytogenetic analysis involves the examination of chromosomes to identify structural abnormalities. Conventional cytogenetics (karyotyping) is the standard cytogenetic analysis for identifying gross chromosomal abnormalities: aneuploidies & structural (gain/loss, rearrangement). Chromosomes of a dividing human cell can be analysed clearly in white blood cells, specifically T lymphocytes, which are easily collected from blood. Cells from other tissues such as bone marrow, amniotic fluid, and other tissues can also be cultured for cytogenetic analysis. Cells from bone marrow are cultured for several days. Chromosomes in the growing and dividing cells are then fixed, spread on microscope slides, and stained to allow each of the chromosomes to be individually identified. Cytogenetic study was performed using the standard G-banding method (Reference 22, the contents of which are incorporated by reference). […] Findings based on the FISH technique were used as considered supportive information (FISH analysis is based on probes directed to specific chromosomal regions (molecular cytogenetics)) (Reference 22).

[3] = test system: cell line that is resistant to cytarabine; settings: cited from earlier work
[4] = Antecedent MDS/MPN No and WBC ≥10,000
[5] = Antecedent MDS/MPN Yes and WBC <10,000
[6] = SWOG Not unfavourable and WBC <10,000
[7] = SWOG Unfavourable and WBC ≥10,000

CCCCCCCCCCCCCCCC(=O)Nc1ccn([C@@H]2O[C@H](CO)[C@@H](O)[C@@H]2C#N)c(=O)n1 [(I), 1-(2-C-cyano-2-deoxy-β-D-arabino-pentofuranosyl)-N^4-palmitoyl cytosine]
anticancer activity (colon cancer): strong
increasing survival and preventing the spread of colon cancer metastases to the liver, compared with gemcitabine or 5-FU (colon cancer): superior
dose-limiting toxicity [1]: myelosuppression
tolerability [1]: well tolerated

N#C[C@H]1[C@H](O)[C@@H](CO)O[C@H]1n1ccc(N)nc1=O [CNDAC, 2′-C-cyano-2′-deoxy-1-β-D-arabino-pentofuranosyl cytosine]
interaction with hypomethylating agents (AML cell lines): synergistic

Nc1ncn([C@H]2C[C@H](O)[C@@H](CO)O2)c(=O)n1 [Decitabine, 4-amino-1-(2-deoxy-β-D-erythro-pentofuranosyl)-1,3,5-triazin-2(1H)-one]
1-year survival (%) [2, 4]: 36.7%
Median overall survival months [2, 4]: 5.5 months
1-year survival (%) [2, 5]: 27.5%
CR rate (%) [2, 5]: 2.5%
Median overall survival months [2, 5]: 4.9 months
1-year survival (%) ([2]; Antecedent MDS/MPN: No): 35.5%
Median overall survival months ([2]; Antecedent MDS/MPN: No): 6.7 months
1-year survival (%) ([2]; Antecedent MDS/MPN: Yes): 32.9%
CR median duration, months ([2]; Antecedent MDS/MPN: Yes): 7.1 months
CR rate (%) ([2]; Antecedent MDS/MPN: Yes): 5.7%
Median overall survival months ([2]; Antecedent MDS/MPN: Yes): 5.0 months
1-year survival (%) [2, 6]: 31.8%
CR rate (%) [2, 6]: 5.7%
Median overall survival months [2, 6]: 5.6 months
1-year survival (%) [2, 7]: 30.0%
CR rate (%) [2, 7]: 0%
Median overall survival months [2, 7]: 3.0 months
1-year survival (%) ([2]; SWOG category Not Unfavourable): 35.9%
Median overall survival months ([2]; SWOG category Not Unfavourable): 5.7 months
1-year survival (%) ([2]; SWOG category Unfavourable): 33.0%
CR rate (%) ([2]; SWOG category Unfavourable): 9.6%
Median overall survival months ([2]; SWOG category Unfavourable): 5.7 months
Median overall survival ([2]; all randomized patients (n=241 per arm)): 5.7 months
Patients aged 80 and over, median overall survival, months ([2]; patients aged 80 and over with <10,000 WBC): 4.2 months
1-year survival (%) ([2]; patients with <10,000 WBC): 32.9%
CR rate (%) ([2]; patients with <10,000 WBC): 8.6%
Median overall survival months ([2]; patients with <10,000 WBC): 5.8 months
1-year survival (%) ([2]; patients with ≥10,000 WBC): 38.5%
Median overall survival months ([2]; patients with ≥10,000 WBC): 5.5 months

Nc1ccn([C@@H]2O[C@H](CO)[C@@H](O)[C@@H]2O)c(=O)n1 [cytarabine]
IC50 ([3]; after 5-azacitidine (upregulation of dCK)): 0.55 µM
IC50 ([3]; before 5-azacitidine): 12.5 µM
